Each structure is given as a SMILES string.

In the experiment the test system is parasites (ring stage, in human red blood cell culture). The experiment in a line: Parasite LDH growth assay (antiparasite potency, Parasite Assay). The experiment is classed as cell-based, Plasmodium falciparum. The conditions noted are these: 0.7% rings, 2% haematocrit, 72 hours at 37° C., LDH readout of parasite growth. The method in brief: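 Growth was read by an LDH assay after a freeze–thaw cycle (−80 °C overnight, 4 h thaw at RT). Before that, parasites grew with compound for 72 h at 37 °C under gassed, humidified conditions. The input was a ring-stage culture adjusted to 0.7% parasitemia and 2% haematocrit in serum (5%)/albumax (0.5%)-supplemented RPMI-Hepes.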

Where [1] appears, read: Plasmodium falciparum, Erythrocyte, 72 h.

Consider `CCC1(CC)CC(=O)N([C@@H]2CCOc3c(Cl)cc(C(=O)N[C@H]4c5ccccc5OC(C)(C)[C@@H]4O)cc32)C(=N)N1` [Example 29B, (R)-8-chloro-4-(4,4-diethyl-2-imino-6-oxotetrahydropyrimidin-1(2H)-yl)-N-((3R,4S)-3-hydroxy-2,2-dimethylchroman-4-yl)chromane-6-carboxamide], for which the EC50 under setting [1] was 39.7 nM. On the same count and under the same terms, then `CCC1(CC)CC(=O)N([C@@H]2CCOc3ccc(C(=O)N[C@@H]4c5ccccc5OC(C)(C)[C@H]4O)nc32)C(=N)N1` [Example 30A, (R)-4-(4,4-diethyl-2-imino-6-oxotetrahydropyrimidin-1(2H)-yl)-N-((3S,4R)-3-hydroxy-2,2-dimethylchroman-4-yl)-3,4-dihydro-2H-pyrano[3,2-b]pyridine-6-carboxamide], with 0.8 nM; and `CCC1(CC)CC(=O)N([C@@H]2CCOc3ccc(C(=O)N[C@@H]4CC(C)(C)Oc5ccccc54)nc32)C(=N)N1` [Example 31A, (R)-4-(4,4-diethyl-2-imino-6-oxotetrahydropyrimidin-1(2H)-yl)-N-((R)-2,2-dimethylchroman-4-yl)-3,4-dihydro-2H-pyrano[3,2-b]pyridine-6-carboxamide], with 22 nM. The same measure, in the same setting: then `CCC1(CC)CC(=O)N([C@@H]2CCOc3ccc(C(=O)N[C@H]4CC(C)(C)Oc5ccccc54)nc32)C(=N)N1` [Example 31B, (R)-4-(4,4-diethyl-2-imino-6-oxotetrahydropyrimidin-1(2H)-yl)-N-((S)-2,2-dimethylchroman-4-yl)-3,4-dihydro-2H-pyrano[3,2-b]pyridine-6-carboxamide], with 1 nM. Still for that read-out and setting: as for `CCC1(CC)CC(=O)N([C@@H]2CC(C)(C)Oc3ccc(C(=O)N[C@H]4CCOc5ccccc54)cc32)C(=N)N1` [Example 33A, (R)-N-((S)-chroman-4-yl)-4-(4,4-diethyl-2-imino-6-oxotetrahydropyrimidin-1(2H)-yl)-2,2-dimethylchromane-6-carboxamide], the figure is 28.3 nM; as for `CCC1(CC)CC(=O)N([C@@H]2CC(C)(C)Oc3ccc(C(=O)N[C@@H]4c5ccccc5OC(C)(C)[C@H]4O)cc32)C(=N)N1` [Example 34A, (R)-4-(4,4-diethyl-2-imino-6-oxotetrahydropyrimidin-1(2H)-yl)-N-((3S,4R)-3-hydroxy-2,2-dimethylchroman-4-yl)-2,2-dimethylchromane-6-carboxamide], 1.2 nM; as for `CCC1(CC)CC(=O)N([C@@H]2CC(C)(C)Oc3ccc(C(=O)N[C@@H]4c5ccccc5C[C@H]4O)cc32)C(=N)N1` [Example 35A, (R)-4-(4,4-diethyl-2-imino-6-oxotetrahydropyrimidin-1(2H)-yl)-N-((lR,2R)-2-hydroxy-2,3-dihydro-1H-inden-1-yl)-2,2-dimethylchromane-6-carboxamide], 2.4 nM. Under setting [1], `CCC1(CC)CC(=O)N([C@@H]2CC(C)(C)Oc3ccc(C(=O)N[C@@H]4c5ccccc5OC[C@@H]4O)cc32)C(=N)N1` [Example 36A, (R)-4-(4,4-diethyl-2-imino-6-oxotetrahydropyrimidin-1(2H)-yl)-N-((3R,4R)-3-hydroxychroman-4-yl)-2,2-dimethylchromane-6-carboxamide] came in with a concentration for a half-maximal effect (EC50) of 8.9 nM. The same measure, in the same setting: then `CCC1(CC)CC(=O)N([C@@H]2CC(C)(C)Oc3ccc(C(=O)N[C@@H]4c5ccccc5OC[C@H]4O)cc32)C(=N)N1` [Example 36B, (R)-4-(4,4-diethyl-2-imino-6-oxotetrahydropyrimidin-1(2H)-yl)-N-((3 S,4R)-3-hydroxychroman-4-yl)-2,2-dimethylchromane-6-carboxamide], with 2.2 nM. Still for that read-out and setting: then `CC(C)[C@]1(C)CC(=O)N([C@@H]2CC(C)(C)Oc3ccc(C(=O)N[C@H]4CCOc5ccccc54)cc32)C(=N)N1` [Example 37A, (R)-N-((S)-chroman-4-yl)-4-((S)-2-imino-4-isopropyl-4-methyl-6-oxotetrahydropyrimidin-1(2H)-yl)-2,2-dimethylchromane-6-carboxamide], with 74.4 nM; and `CC(C)[C@]1(C)CC(=O)N([C@@H]2CC(C)(C)Oc3ccc(C(=O)N[C@@H]4c5ccccc5OC(C)(C)[C@H]4O)cc32)C(=N)N1` [Example 38A, (R)-N-((3 S,4R)-3-hydroxy-2,2-dimethylchroman-4-yl)-4-((S)-2-imino-4-isopropyl-4-methyl-6-oxotetrahydropyrimidin-1(2H)-yl)-2,2-dimethylchromane-6-carboxamide], with 2.8 nM; and `CC(C)[C@]1(C)CC(=O)N([C@@H]2CC(C)(C)Oc3ccc(C(=O)N[C@@H]4c5ccccc5C[C@H]4O)cc32)C(=N)N1` [Example 39A, (R)-N-((1R,2R)-2-hydroxy-2,3-dihydro-1H-inden-l-yl)-4-((S)-2-imino-4-isopropyl-4-methyl-6-oxotetrahydropyrimidin-1(2H)-yl)-2,2-dimethylchromane-6-carboxamide], with 29.9 nM. `CC(C)[C@]1(C)CC(=O)N([C@@H]2CC(C)(C)Oc3ccc(C(=O)N[C@@H]4c5ccccc5OC[C@H]4O)cc32)C(=N)N1` [Example 40A, (R)-N-((3S,4R)-3-hydroxychroman-4-yl)-4-((S)-2-imino-4-isopropyl-4-methyl-6-oxotetrahydropyrimidin-1(2H)-yl)-2,2-dimethylchromane-6-carboxamide] came in with an EC50 of 69.5 nM. Compound `CC(C)[C@]1(C)CC(=O)N([C@@H]2CC(C)(C)Oc3ccc(C(=O)N[C@@H]4c5cc(F)ccc5OC(C)(C)[C@H]4O)cc32)C(=N)N1` [Example 41A, (R)-N-((3 S,4R)-6-fluoro-3-hydroxy-2,2-dimethylchroman-4-yl)-4-((S)-2-imino-4-isopropyl-4-methyl-6-oxotetrahydropyrimidin-1(2H)-yl)-2,2-dimethylchromane-6-carboxamide] returned a 50% effective concentration (EC50) under setting [1] of 2.8 nM. `CC(C)[C@]1(C)CC(=O)N([C@@H]2CC(C)(C)Oc3ccc(C(=O)N[C@@H]4c5ccccc5OC[C@H]4O)cc32)C(=N)N1` [Example 45A, (R)-N-((3S,4R)-3-hydroxychroman-4-yl)-4-((S)-2-imino-4-isopropyl-4-methyl-6-oxotetrahydropyrimidin-1(2H)-yl)-2,2-dimethylchromane-6-carboxamide] had a concentration for a half-maximal effect (EC50) of 2.6 nM. For `CCC1(CC)CC(=O)N([C@@H]2CC(C)(C)Oc3ccc(C(=O)N[C@@H]4c5cc(F)ccc5OC(C)(C)[C@H]4O)cc32)C(=N)N1` [Example 46A, (R)-4-(4,4-diethyl-2-imino-6-oxotetrahydropyrimidin-1(2H)-yl)-N-((3S,4R)-6-fluoro-3-hydroxy-2,2-dimethylchroman-4-yl)-2,2-dimethylchromane-6-carboxamide], the EC50 is 130 nM. For `CC1(C)CC(=O)N([C@@H]2CC(C)(C)Oc3ccc(C(=O)N[C@@H]4c5ccccc5OC(C)(C)[C@H]4O)cc32)C(=N)N1` [Example 47A, (R)-N-((3S,4R)-3-hydroxy-2,2-dimethylchroman-4-yl)-4-(2-imino-4,4-dimethyl-6-oxotetrahydropyrimidin-1(2H)-yl)-2,2-dimethylchromane-6-carboxamide], the half-maximal effective concentration (EC50) under setting [1] stood at 4.7 nM. On the same count and under the same terms, as for `CC1(C)CC(=O)N([C@@H]2CC(C)(C)Oc3ccc(C(=O)N[C@@H]4c5ccccc5C[C@H]4O)cc32)C(=N)N1` [Example 48A, (R)-N-((lR,2R)-2-hydroxy-2,3-dihydro-1H-inden-l-yl)-4-(2-imino-4,4-dimethyl-6-oxotetrahydropyrimidin-1(2H)-yl)-2,2-dimethylchromane-6-carboxamide], the figure is 37.5 nM. `CC1(C)CC(=O)N([C@@H]2CC(C)(C)Oc3ccc(C(=O)N[C@@H]4c5ccccc5OC[C@H]4O)cc32)C(=N)N1` [Example 49A, (R)-N-((3S,4R)-3-hydroxychroman-4-yl)-4-(2-imino-4,4-dimethyl-6-oxotetrahydropyrimidin-1(2H)-yl)-2,2-dimethylchromane-6-carboxamide] yielded an EC50 under setting [1] of 49 nM.

As to `CCC1(CC)C[C@@H](N2C(=N)NC(C)(C)CC2=O)c2cc(C(=O)N[C@@H]3c4ccccc4OC(C)(C)[C@H]3O)ccc2O1` [Example 50A, (R)-2,2-diethyl-N-((3S,4R)-3-hydroxy-2,2-dimethylchroman-4-yl)-4-(2-imino-4,4-dimethyl-6-oxotetrahydropyrimidin-1(2H)-yl)chromane-6-carboxamide], a half-maximal response under setting [1] (EC50) required 3.7 nM. Same read-out and setting: as for `CCC1(CC)C[C@@H](N2C(=N)NC(C)(C)CC2=O)c2cc(C(=O)N[C@@H]3c4ccccc4C[C@H]3O)ccc2O1` [Example 51A, (R)-2,2-diethyl-N-((1R,2R)-2-hydroxy-2,3-dihydro-1H-inden-l-yl)-4-(2-imino-4,4-dimethyl-6-oxotetrahydropyrimidin-1(2H)-yl)chromane-6-carboxamide], the figure is 22.5 nM. Same read-out and setting: then `CCC1(CC)C[C@@H](N2C(=N)NC(C)(C)CC2=O)c2cc(C(=O)N[C@@H]3c4ccccc4OC[C@H]3O)ccc2O1` [Example 52A, (R)-2,2-diethyl-N-((3S,4R)-3-hydroxychroman-4-yl)-4-(2-imino-4,4-dimethyl-6-oxotetrahydropyrimidin-1(2H)-yl)chromane-6-carboxamide], with 14.4 nM.

As to `CCC1(CC)CC(=O)N([C@@H]2CC(C)(C)Oc3ccc(C(=O)N[C@@H]4c5cc(F)ccc5OC(C)(C)[C@H]4O)cc32)C(=N)N1` [Example 53A, (R)-4-(4,4-diethyl-2-imino-6-oxotetrahydropyrimidin-1(2H)-yl)-N-((3S,4R)-6-fluoro-3-hydroxy-2,2-dimethylchroman-4-yl)-2,2-dimethylchromane-6-carboxamide], a half-maximal response (EC50) required 0.3 nM. Same read-out and setting: as for `CC1(C)CC(=O)N([C@@H]2CC(C)(C)Oc3ccc(C(=O)N[C@@H]4c5ccccc5OC[C@H]4O)cc32)C(=N)N1` [Example 56A, (R)-N-((3S,4R)-3-hydroxychroman-4-yl)-4-(2-imino-4,4-dimethyl-6-oxotetrahydropyrimidin-1(2H)-yl)-2,2-dimethylchromane-6-carboxamide], the figure is 26.9 nM.

A word on the EC50: it is the concentration giving half of the maximal effect.

The values are drawn from patent US12350270B2, “Antimalarial agents” (Merck Sharp & Dohme LLC, priority 2019, dated 2025).
